The source of these data is patent publication US20220274945A1, “SUBSTITUTED THIOPHENE CARBOXAMIDES AND DERIVATIVES THEREOF AS MICROBICIDES” (Bayer Aktiengesellschaft, priority 2019, published 2022).

One data set can be described thus: Log P by HPLC on reversed phase columns (EEC directive 79/831 Annex V.A8). Format: physicochemical.
Conditions: not given
How it is done: In the above tables, measurement of Log P values was performed according to EEC directive 79/831 Annex V.A8 by HPLC (High Performance Liquid Chromatography) on reversed phase columns with the following methods: [^a] […] If more than one Log P value is available within the same method, all the values are given and separated by “+”. Calibration was done with straight-chain alkan2-ones (with 3 to 16 carbon atoms) with known Log P values (measurement of Log P values using retention times with linear interpolation between successive alkanones). Lambda-max-values were determined using UV-spectra from 200 nm to 400 nm and the peak values of the chromatographic signals.
Turning to `C[Si](C)(C)COC(=O)C1(NC(=O)c2sc(Br)c(Br)c2Br)CC1` [I.69], the LogP was 4.97^[a].

For `CCCCOC(=O)C1(NC(=O)c2sc(Cl)c(Cl)c2Br)CC1` [I.29], the LogP was 4.34^[a].

On to `O=C(NC1(C(=O)OC2CCC2)CC1)c1sc(Br)c(Br)c1F` [I.36], for which the LogP is 3.71^[a].

For `COC(=O)C1(NC(=O)c2sc(Cl)c(Cl)c2F)CC1` [I.45], the LogP is 2.65^[a].

With `O=C(NC1(C(=O)O)CC1)c1sc(Br)c(Br)c1F` [I.02], the LogP is 2.19^[a].

Turning to `C#CCOC(=O)C1(NC(=O)c2sc(Br)c(Br)c2I)CC1` [I.51], the LogP is 3.40^[a].

Regarding `O=C(NC1(C(=O)OCC(F)(F)F)CC1)c1sc(Br)c(Br)c1Br` [I.74], the LogP was 3.94^[a].

Turning to `O=C(NC1(C(=O)OC2CCOCC2)CC1)c1sc(Br)c(Br)c1Br` [I.68], the LogP is 3.26^[a].

On to `CCCOC(=O)C1(NC(=O)c2sc(Br)c(Br)c2Cl)CC1` [I.40], for which the LogP was 3.91^[a].

For the compound `CC(C)COC(=O)C1(NC(=O)c2sc(Br)c(Br)c2Br)CC1` [I.56], the LogP was 4.40^[a].

Turning to `CC(C)OC(=O)C1(NC(=O)c2sc(Br)c(Br)c2I)CC1` [I.62], the LogP was 3.87^[a].

Consider `CC(C)OC(=O)C1(NC(=O)c2sc(Br)c(Br)c2Br)CC1` [I.58], for which the LogP was 3.98^[a].

Turning to `CC(C)COC(=O)C1(NC(=O)c2sc(Cl)c(Cl)c2Br)CC1` [I.28], the LogP is 4.31^[a].

`O=C(NC1(C(=O)OCc2ccccc2)CC1)c1sc(Cl)c(Cl)c1Br` [I.25]: the LogP was 4.28^[a].

`O=C(NC1(C(=O)OCc2ccccc2)CC1)c1sc(Br)c(Br)c1F` [I.17]: the LogP was 3.94^[a].

For `CCCOC(=O)C1(NC(=O)c2sc(Br)c(Br)c2F)CC1` [I.37], the LogP is 3.54^[a].

Consider `CCOC(=O)C1(NC(=O)c2sc(Cl)c(Cl)c2I)CC1` [I.04], for which the LogP was 3.39^[a].

Consider `O=C(NC1(C(=O)OC2CCC2)CC1)c1sc(Cl)c(Cl)c1Br` [I.30], for which the LogP was 4.07^[a].

Take `C=CCOC(=O)C1(NC(=O)c2sc(Br)c(Br)c2Br)CC1` [I.48]: the LogP was 3.77^[a].

As to `O=C(NC1(C(=O)OC2CCCC2)CC1)c1sc(Br)c(Br)c1Br` [I.55], the LogP was 4.47^[a].

`C[Si](C)(C)COC(=O)C1(NC(=O)c2sc(Cl)c(Cl)c2Br)CC1` [I.65]: the LogP is 5.00^[a].

With `CCOC(=O)C1(NC(=O)c2sc(Br)cc2I)CC1` [IVb.02], the LogP was 2.98^[a].

For the compound `O=C(NC1(C(=O)OCc2ccccc2)CC1)c1sc(Br)c(Br)c1Br` [I.50], the LogP is 4.37^[a].

With `O=C(NC1(C(=O)OC2CCCC2)CC1)c1sc(Br)c(Br)c1I` [I.59], the LogP is 4.37^[a].

For the compound `O=C(NC1(C(=O)OC2CCC2)CC1)c1sc(Br)c(Br)c1Br` [I.38], the LogP is 4.10^[a].

Consider `C=CCOC(=O)C1(NC(=O)c2sc(Cl)c(Cl)c2Br)CC1` [I.34], for which the LogP is 3.66^[a].

`CCOC(=O)C1(NC(=O)c2sc(Br)cc2Cl)CC1` [IVb.01]: the LogP is 2.84^[a].

With `O=C(NC1(C(=O)OC2CCOCC2)CC1)c1sc(Cl)c(Cl)c1Br` [I.70], the LogP was 3.23^[a].

`CC(C)OC(=O)C1(NC(=O)c2cc(Br)c(Br)s2)CC1` [V.02]: the LogP is 3.25^[a].

In the case of `CC(C)OC(=O)C1(NC(=O)c2sc(Br)c(Br)c2F)CC1` [I.22], the LogP is 3.52^[a].

Take `COC(=O)C1(NC(=O)c2cc(Cl)c(Cl)s2)CC1` [V.04]: the LogP was 2.49^[a].

`O=C(NC1(C(=O)OCC2CC2)CC1)c1sc(Cl)c(Cl)c1Br` [I.46]: the LogP was 4.05^[a].

Turning to `CC(C)(C)OC(=O)C1(NC(=O)c2sc(Br)c(Br)c2F)CC1` [I.19], the LogP was 3.91^[a].

Turning to `O=C(NC1(C(=O)OC2CCC2)CC1)c1sc(Br)c(Br)c1Cl` [I.42], the LogP was 4.17^[a].

`O=C(NC1(C(=O)OC2CCC2)CC1)c1sc(Br)c(Br)c1I` [I.35]: the LogP was 3.99^[a].

Regarding `O=C(NC1(C(=O)OC2CSC2)CC1)c1sc(Cl)c(Cl)c1Br` [I.71], the LogP was 3.87^[a].

On to `C=CCOC(=O)C1(NC(=O)c2sc(Br)c(Br)c2I)CC1` [I.52], for which the LogP is 3.71^[a].

On to `C#CCOC(=O)C1(NC(=O)c2sc(Br)c(Br)c2Br)CC1` [I.47], for which the LogP is 3.44^[a].

For the compound `CCOC(=O)C1(NC(=O)c2cc(Br)c(Br)s2)CC1` [V.01], the LogP was 2.90^[a].

With `CC(C)COC(=O)C1(NC(=O)c2sc(Br)c(Br)c2F)CC1` [I.20], the LogP was 3.92^[a].

As for `O=C(NC1(C(=O)OCC(F)(F)F)CC1)c1sc(Cl)c(Cl)c1Br` [I.64], the LogP was 3.91^[a].

Consider `CCOC(=O)C1(NC(=O)c2sc(Cl)c(Cl)c2F)CC1` [I.44], for which the LogP is 3.05^[a].

As to `N#CCOC(=O)C1(NC(=O)c2sc(Br)c(Br)c2Br)CC1` [I.72], the LogP was 3.16^[a].

Take `CCCCOC(=O)C1(NC(=O)c2sc(Br)c(Br)c2Br)CC1` [I.57]: the LogP is 4.44^[a].

Turning to `O=C(NC1(C(=O)Oc2ccccc2)CC1)c1sc(Cl)c(Cl)c1Br` [I.66], the LogP is 4.19^[a].

Regarding `C=CCOC(=O)C1(NC(=O)c2sc(Br)c(Br)c2F)CC1` [I.24], the LogP is 3.33^[a].

`O=C(NC1(C(=O)OC2CCCC2)CC1)c1sc(Cl)c(Cl)c1Br` [I.26]: the LogP is 4.37^[a].

For the compound `CCCOC(=O)C1(NC(=O)c2sc(Br)c(Br)c2Br)CC1` [I.39], the LogP is 3.92^[a].

Turning to `CCOC(=O)C1(NC(=O)c2sc(Br)cc2Br)CC1` [IVb.05], the LogP is 2.92^[a].

Take `O=C(NC1(C(=O)OC2CSC2)CC1)c1sc(Br)c(Br)c1Br` [I.75]: the LogP was 4.85^[a].

On to `O=C(NC1(C(=O)OC2CCCC2)CC1)c1sc(Br)c(Br)c1F` [I.18], for which the LogP was 3.99^[a].

On to `CCOC(=O)C1(NC(=O)c2sccc2F)CC1` [IVc.01], for which the LogP is 1.65^[a].

For the compound `CCCCOC(=O)C1(NC(=O)c2sc(Br)c(Br)c2F)CC1` [I.21], the LogP was 3.96^[a].

As for `CCOC(=O)C1(NC(=O)c2sc(Br)cc2F)CC1` [IVb.03], the LogP was 2.46^[a].

With `CCCOC(=O)C1(NC(=O)c2sc(Br)c(Br)c2I)CC1` [I.41], the LogP was 3.85^[a].

As for `CC(C)OC(=O)C1(NC(=O)c2sc(Cl)c(Cl)c2Br)CC1` [I.32], the LogP is 3.86^[a].

As to `CCCOC(=O)C1(NC(=O)c2sc(Cl)c(Cl)c2Br)CC1` [I.31], the LogP is 3.89^[a].

Regarding `C#CCOC(=O)C1(NC(=O)c2sc(Cl)c(Cl)c2Br)CC1` [I.33], the LogP was 3.35^[a].

In the case of `O=C(NC1(C(=O)OCC2CC2)CC1)c1sc(Br)c(Br)c1Br` [I.67], the LogP is 4.02^[a].

As for `CC(C)(C)OC(=O)C1(NC(=O)c2sc(Br)c(Br)c2Br)CC1` [I.49], the LogP was 4.40^[a].

The same data set, now with this note: reversed phase HPLC columns, method [a]: LC-UV, acidic range, 0.1% formic acid in water and acetonitrile as eluent.
Compound `CCOC(=O)C1(NC(=O)c2scc(Br)c2F)CC1` [IVa.01, Ethyl 1-{[(4-bromo-3-fluoro-2-thienyl)carbonyl]amino}cyclopropanecarboxylate] came in with a chromatographic logP of 2.37.

The data set is the same for the next values; noted with them: reversed phase HPLC columns, value in the preparation example; method letter not given.
As to `CCOC(=O)C1(NC(=O)c2scc(Br)c2F)CC1` [IVa.01, Ethyl 1-{[(4-bromo-3-fluoro-2-thienyl)carbonyl]amino}cyclopropanecarboxylate], the chromatographic logP worked out at 2.39.

One may read the chromatographic logP as a lipophilicity value derived from retention on a column. A higher chromatographic logP goes with higher lipophilicity.
